Reference: patent US12187709B2 (Genentech, Inc., priority 2021, dated 2025)

Experiments:
Cbl-b = Cbl-b (Homo sapiens (Human), UniProt Q13191); assay: Cbl-b LCK Ub TR-FRET assay (Cbl-b Lck HTRF); format: biochemical; conditions: for IC50: Cbl-b LCK Ub TR-FRET; for fold-selectivity (Cbl-b over C-cbl) / (fold-selectivity) Cbl-b and C-Cbl Selectivity: ratio C-cbl Lck HTRF IC50 / Cbl-b Lck HTRF IC50
Outline: (§1)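 Detection reagents added, brief spin, 20 min RT. IC50 fit normalized to no-LCK (low) and DMSO (high) controls.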

c-Cbl = c-Cbl (Homo sapiens (Human), UniProt P22681); assay: C-Cbl LCK Ub TR-FRET assay (C-cbl Lck HTRF); format: biochemical
Chain of c-Cbl (P22681 47-435): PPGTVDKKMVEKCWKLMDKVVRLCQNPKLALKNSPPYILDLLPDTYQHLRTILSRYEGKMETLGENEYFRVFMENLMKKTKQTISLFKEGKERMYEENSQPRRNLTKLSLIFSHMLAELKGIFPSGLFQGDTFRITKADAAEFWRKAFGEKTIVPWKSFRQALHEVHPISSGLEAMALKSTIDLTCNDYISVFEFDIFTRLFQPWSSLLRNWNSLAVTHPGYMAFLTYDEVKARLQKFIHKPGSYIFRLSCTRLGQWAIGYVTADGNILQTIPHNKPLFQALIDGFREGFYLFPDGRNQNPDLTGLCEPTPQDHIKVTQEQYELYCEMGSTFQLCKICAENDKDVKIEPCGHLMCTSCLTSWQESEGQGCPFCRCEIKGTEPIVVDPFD
Outline: as §1

Chain of Cbl-b (Q13191 40-426): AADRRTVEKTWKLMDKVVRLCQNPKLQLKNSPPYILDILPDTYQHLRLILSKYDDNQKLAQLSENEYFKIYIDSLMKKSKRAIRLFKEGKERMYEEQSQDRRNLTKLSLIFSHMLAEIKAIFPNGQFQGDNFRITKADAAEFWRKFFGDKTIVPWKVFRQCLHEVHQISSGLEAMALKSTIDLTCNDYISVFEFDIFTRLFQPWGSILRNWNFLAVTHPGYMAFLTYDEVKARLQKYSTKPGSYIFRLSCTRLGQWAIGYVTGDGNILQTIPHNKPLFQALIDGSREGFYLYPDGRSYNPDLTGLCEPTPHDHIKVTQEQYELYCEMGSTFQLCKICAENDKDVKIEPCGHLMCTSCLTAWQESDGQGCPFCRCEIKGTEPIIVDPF

Row | Compound | IC50 (Cbl-b) [nM] | fold-selectivity (Cbl-b over C-cbl) (Cbl-b) | IC50 (c-Cbl) [nM] | IC50 (Cbl-b; Example 121) [nM] | (fold-selectivity) Cbl-b and C-Cbl Selectivity (Cbl-b) [x]
1 | CO[C@H]1C[C@](c2cc(OC3CCCC3)nc(N3Cc4c(cc(CNC5(C)CCC5)cc4C(F)(F)F)C3=O)c2)(c2nncn2C)C1 [Compound 79, 2-(6-(cyclopentyloxy)-4-((1R,3R)-3-methoxy-1-(4-methyl-4H-1,2,4-triazol-3-yl)cyclobutyl)pyridin-2-yl)-6-(((1-methylcyclobutyl)amino)methyl)-4-(trifluoromethyl)isoindolin-1-one] | 32 | (7.4x) | 237 | – | –
2 | Cn1cnnc1C1(c2cccc(N3Cc4c(cc(CNC5(C)CCC5)cc4C(F)(F)F)C3=O)c2)CC2(CC(O)C2)C1 (stereo not drawn) [Compound 93, 2-(3-(6-hydroxy-2-(4-methyl-4H-1,2,4-triazol-3-yl)spiro[3.3]heptan-2-yl)phenyl)-6-(((1-methylcyclobutyl)amino)methyl)-4-(trifluoromethyl)isoindolin-1-one] | 120 | 7.3x | 900 | – | –
3 | CC(C)[C@H]1CN(C)CCN1Cc1cc2c(c(C(F)(F)F)c1)CN(c1cccc([C@@H](c3nncn3C)C3COC3)c1)C2=O (single isomer, unassigned) [Compound 10] | 12 | (2.0x) | 24 | – | –
4 | CCOC1CC([C@@H](c2cccc(N3Cc4c(cc(CNC5(C)CCC5)cc4C(F)(F)F)C3=O)c2)c2nncn2C)C1 (single isomer, unassigned) [Compound 266] | 6700 | 3.0x | ≥ 20000 | – | –
5 | Cn1cnnc1C(c1cccc(N2Cc3c(cc(CNC4(C)CCC4)cc3C(F)(F)F)C2=O)c1)[C@H]1C[C@H](Cl)C1 (single isomer, unassigned) [Compound 355] | 150 | 13x | 2000 | – | –
6 | Cn1cnnc1[C@H](c1cccc(N2Cc3c(cc([C@@H](NC4(C)CCC4)C4CC4)cc3C(F)(F)F)C2=O)c1)C1COC1 (single isomer, unassigned) [Compound 457] | – | – | 11000 | 7100 | 1.6
7 | Cn1cnnc1C(F)(c1cccc(N2Cc3c(cc(CNC4(C)CCC4)cc3C(F)(F)F)C2=O)c1)C1COC1 (single isomer, unassigned) [Compound 151] | 3800 | 2.1x | 7900 | – | –
8 | CO[C@H]1C[C@@](c2cc(C)cc(N3Cc4c(cc(CNC5(C)CCC5)cc4C(F)(F)F)C3=O)c2)(c2nncn2C)C1 [Compound 237, 2-(3-((1s,3s)-3-methoxy-1-(4-methyl-4H-1,2,4-triazol-3-yl)cyclobutyl)-5-methylphenyl)-6-(((1-methylcyclobutyl)amino)methyl)-4-(trifluoromethyl)isoindolin-1-one] | 340 | 1.2x | 390 | – | –
9 | CCc1cc(C2(c3nncn3C)CC(F)(F)C2)cc(N2Cc3c(cc(CNC4(C)CCC4)cc3C(F)(F)F)C2=O)n1 [Compound 59, 2-(4-(3,3-difluoro-1-(4-methyl-4H-1,2,4-triazol-3-yl)cyclobutyl)-6-ethylpyridin-2-yl)-6-(((1-methylcyclobutyl)amino)methyl)-4-(trifluoromethyl)isoindolin-1-one] | 18 | (0.96x) | 17 | – | –
10 | CO[C@H](c1cccc(N2Cc3c(cc(CNC4(C)CCC4)cc3C(F)(F)F)C2=O)c1)c1nncn1C (single isomer, unassigned) [Compound 42] | 180 | (1.5x) | 270 | – | –
11 | Cn1cnnc1[C@H](c1cccc(N2Cc3c(cc(CNC4(C)CCC4)cc3C(F)(F)F)C2=O)c1)C1CC(OC(F)(F)F)C1 (single isomer, unassigned) [Compound 396] | 100 | 1.7x | 170 | – | –
12 | Cn1cnnc1[C@@H](C[C@@H]1CCOC1)c1cccc(N2Cc3c(cc(CNC4(C)CCC4)cc3C(F)(F)F)C2=O)c1 [Compound 276, 2-(3-((S)-1-(4-methyl-4H-1,2,4-triazol-3-yl)-2-((R)-tetrahydrofuran-3-yl)ethyl)phenyl)-6-(((1-methylcyclobutyl)amino)methyl)-4-(trifluoromethyl)isoindolin-1-one] | ≥ 20000 | 1.0x | 20000 | – | –
13 | CCOc1cc([C@]2(c3nncn3C)C[C@@H](C)C2)cc(N2Cc3c(cc(CNC4(C)CCC4)cc3C(F)(F)F)C2=O)n1 [Compound 3, 2-(6-ethoxy-4-((1s,3s)-3-methyl-1-(4-methyl-4H-1,2,4-triazol-3-yl)cyclobutyl)pyridin-2-yl)-6-(((1-methylcyclobutyl)amino)methyl)-4-(trifluoromethyl)isoindolin-1-one] | 3.6 | (0.69x) | 2.5 | – | –
14 | Cn1cnnc1[C@@H](c1cccc(N2Cc3c(cc(CNC4(C)CCC4)cc3C(F)(F)F)C2=O)c1)N1CCC1 (single isomer, unassigned) [Compound 33] | 150 | (4.8x) | 720 | – | –
15 | Cn1cnnc1[C@@H](c1cccc(N2Cc3c(cc(CNC4(C)CCC4)cc3C(F)(F)F)C2=O)c1)n1ccnc1 (single isomer, unassigned) [Compound 344] | ≥ 20000 | 1x | 20000 | – | –
16 | Cn1cnnc1[C@@](F)(c1ccccc1)c1cccc(N2Cc3c(cc(CNC4(C)CCC4)cc3C(F)(F)F)C2=O)c1 (single isomer, unassigned) [Compound 157] | ≥ 20000 | 1.0 x | 20000 | – | –
17 | CCOc1cc([C@]2(c3nncn3C)C[C@@H](OC)C2)cc(N2Cc3c(cc(CNC4(C)CCC4)cc3C(F)(F)F)C2=O)n1 [Compound 76, 2-(6-ethoxy-4-((1S,3S)-3-methoxy-1-(4-methyl-4H-1,2,4-triazol-3-yl)cyclobutyl)pyridin-2-yl)-6-(((1-methylcyclobutyl)amino)methyl)-4-(trifluoromethyl)isoindolin-1-one] | 6.4 | (1.0x) | 6.4 | – | –
18 | Cn1cnnc1[C@H](c1cccc(N2Cc3c(cc(CNC4(C)CCC4)cc3C(F)(F)F)C2=O)c1)C1(O)CCC1 (single isomer, unassigned) [Compound 428] | – | – | 20000 | 5300 | 3.8
19 | Cn1cnnc1[C@H](c1cccc(N2Cc3c(cc(CNC4(C)CCC4)cc3C(F)F)C2=O)c1)C1COC1 [Compound 304, (S)-4-(difluoromethyl)-2-(3-((4-methyl-4H-1,2,4-triazol-3-yl)(oxetan-3-yl)methyl)phenyl)-6-(((1-methylcyclobutyl)amino)methyl)isoindolin-1-one] | 7800 | 2.6x | 20000 | – | –
20 | Cc1cc(C2(c3nncn3C)CC(F)(F)C2)cc(N2Cc3c(cc(CNC4(C)CCC4)cc3C(F)(F)F)C2=O)n1 [Compound 60, 2-(4-(3,3-difluoro-1-(4-methyl-4H-1,2,4-triazol-3-yl)cyclobutyl)-6-methylpyridin-2-yl)-6-(((1-methylcyclobutyl)amino)methyl)-4-(trifluoromethyl)isoindolin-1-one] | 110 | (0.73x) | 80 | – | –
